# Reference: ChEMBL document CHEMBL3232986, “Identification of a novel series of potent HCV NS5B Site I inhibitors” (Bioorg Med Chem Lett, 2014)
# pEC50, pIC50: −log10 of the molar value.
# System: not listed separately
# Experiment: Ratio of EC50 for HCV genotype 1a H77c replicon cells to IC50 for HCV genotype 1b wild type NS5B polymerase
# Conditions: not given
row,Structure (SMILES),Ratio
1,COc1ccc2c(c1)[C@@H]1C[C@]1(C(=O)N1CC34COCC3(C1)CN(S(=O)(=O)C(C)C)C4)Cn1c-2c(C2CCCCC2)c2ccc(C(=O)NS(=O)(=O)C(C)C)cc21 (some centres not stated),8

# System: not listed separately
# Experiment: Drug uptake in rat liver 10 mg/kg, po after 6 hrs
# Assay type: ADME, organism-based
# Design: dose 10 mg/kg, route oral
# Conditions: liver, read-out: Drug uptake
row,Structure (SMILES),concentration at 6 h [nM]
1,CCN1CC23COCC2(C1)CN(C(=O)[C@]12C[C@H]1c1cc(OC)ccc1-c1c(C4CCCCC4)c4ccc(C(=O)NS(=O)(=O)C(C)C)cc4n1C2)C3 (some centres not stated),66
2,COc1ccc2c(c1)[C@@H]1C[C@]1(C(=O)N1CC34CN(C)CC3(CN(C)C4)C1)Cn1c-2c(C2CCCCC2)c2ccc(C(=O)NS(=O)(=O)C(C)C)cc21 (some centres not stated),68
3,COc1ccc2c(c1)[C@@H]1C[C@]1(C(=O)N1CC34COCC3(CN(C)C4)C1)Cn1c-2c(C2CCCCC2)c2ccc(C(=O)NS(=O)(=O)C(C)C)cc21 (some centres not stated),38

# Target: not listed separately
# Experiment: Inhibition of HCV genotype 1b wild type NS5B polymerase using biotinylated oligo dT12 primer as substrate after 4 hrs in presence of [3H]UTP
# Design: species or system Hepatitis C virus subtype 1b
# Conditions: not given
row,Structure (SMILES),pIC50
1,CCN1CC23COCC2(C1)CN(C(=O)[C@]12C[C@H]1c1cc(OC)ccc1-c1c(C4CCCCC4)c4ccc(C(=O)NS(=O)(=O)C(C)C)cc4n1C2)C3 (some centres not stated),8.40
2,COc1ccc2c(c1)[C@@H]1C[C@]1(C(=O)N1CC34CN(C)CC3(CN(C)C4)C1)Cn1c-2c(C2CCCCC2)c2ccc(C(=O)NS(=O)(=O)C(C)C)cc21 (some centres not stated),8.30
3,COc1ccc2c(c1)[C@@H]1C[C@]1(C(=O)N1CC34COCC3(CN(C)C4)C1)Cn1c-2c(C2CCCCC2)c2ccc(C(=O)NS(=O)(=O)C(C)C)cc21 (some centres not stated),8.40
4,COc1ccc2c(c1)[C@@H]1C[C@]1(C(=O)N1CC34COCC3(C1)CN(S(=O)(=O)C(C)C)C4)Cn1c-2c(C2CCCCC2)c2ccc(C(=O)NS(=O)(=O)C(C)C)cc21 (some centres not stated),8.70

# System: not listed separately
# Experiment: Plasma concentration in rat at 5 mg/kg, iv after 6 hrs
# Assay type: ADME, organism-based
# Design: dose 5 mg/kg, route intravenous
# Conditions: plasma
row,Structure (SMILES),concentration at 6 h [nM]
1,CCN1CC23COCC2(C1)CN(C(=O)[C@]12C[C@H]1c1cc(OC)ccc1-c1c(C4CCCCC4)c4ccc(C(=O)NS(=O)(=O)C(C)C)cc4n1C2)C3 (some centres not stated),8
2,COc1ccc2c(c1)[C@@H]1C[C@]1(C(=O)N1CC34CN(C)CC3(CN(C)C4)C1)Cn1c-2c(C2CCCCC2)c2ccc(C(=O)NS(=O)(=O)C(C)C)cc21 (some centres not stated),14
3,COc1ccc2c(c1)[C@@H]1C[C@]1(C(=O)N1CC34COCC3(CN(C)C4)C1)Cn1c-2c(C2CCCCC2)c2ccc(C(=O)NS(=O)(=O)C(C)C)cc21 (some centres not stated),6

# System: not listed separately
# Experiment: Plasma concentration in rat at 10 mg/kg, po after 6 hrs
# Assay type: ADME, organism-based
# Design: dose 10 mg/kg, route oral
# Conditions: plasma
row,Structure (SMILES),concentration at 6 h [nM]
1,CCN1CC23COCC2(C1)CN(C(=O)[C@]12C[C@H]1c1cc(OC)ccc1-c1c(C4CCCCC4)c4ccc(C(=O)NS(=O)(=O)C(C)C)cc4n1C2)C3 (some centres not stated),6
2,COc1ccc2c(c1)[C@@H]1C[C@]1(C(=O)N1CC34CN(C)CC3(CN(C)C4)C1)Cn1c-2c(C2CCCCC2)c2ccc(C(=O)NS(=O)(=O)C(C)C)cc21 (some centres not stated),4
3,COc1ccc2c(c1)[C@@H]1C[C@]1(C(=O)N1CC34COCC3(CN(C)C4)C1)Cn1c-2c(C2CCCCC2)c2ccc(C(=O)NS(=O)(=O)C(C)C)cc21 (some centres not stated),2

# System: not listed separately
# Experiment: Clearance in rat after 6 hrs
# Assay type: ADME, organism-based
# Conditions: in vivo
row,Structure (SMILES),clearance [mL/min/kg]
1,CCN1CC23COCC2(C1)CN(C(=O)[C@]12C[C@H]1c1cc(OC)ccc1-c1c(C4CCCCC4)c4ccc(C(=O)NS(=O)(=O)C(C)C)cc4n1C2)C3 (some centres not stated),49
2,COc1ccc2c(c1)[C@@H]1C[C@]1(C(=O)N1CC34CN(C)CC3(CN(C)C4)C1)Cn1c-2c(C2CCCCC2)c2ccc(C(=O)NS(=O)(=O)C(C)C)cc21 (some centres not stated),25
3,COc1ccc2c(c1)[C@@H]1C[C@]1(C(=O)N1CC34COCC3(CN(C)C4)C1)Cn1c-2c(C2CCCCC2)c2ccc(C(=O)NS(=O)(=O)C(C)C)cc21 (some centres not stated),27

# System: not listed separately
# Experiment: Cytotoxicity against human HuH7 cells after 3 days by Alamar blue assay
# Assay type: cell-based, Huh-7
# Conditions: not given
row,Structure (SMILES),CC50 at 72 h [µM]
1,COc1ccc2c(c1)[C@@H]1C[C@]1(C(=O)N1CC34COCC3(CN(C)C4)C1)Cn1c-2c(C2CCCCC2)c2ccc(C(=O)NS(=O)(=O)C(C)C)cc21 (some centres not stated),14

# System: not listed separately
# Experiment: Cytotoxicity against human HuH7 cells after 4 hrs by CellTitre-Blue assay
# Assay type: cell-based, Huh-7
# Conditions: not given
row,Structure (SMILES),CC50 at 4 h [µM]
1,CCN1CC23COCC2(C1)CN(C(=O)[C@]12C[C@H]1c1cc(OC)ccc1-c1c(C4CCCCC4)c4ccc(C(=O)NS(=O)(=O)C(C)C)cc4n1C2)C3 (some centres not stated),11
2,COc1ccc2c(c1)[C@@H]1C[C@]1(C(=O)N1CC34CN(C)CC3(CN(C)C4)C1)Cn1c-2c(C2CCCCC2)c2ccc(C(=O)NS(=O)(=O)C(C)C)cc21 (some centres not stated),43
3,COc1ccc2c(c1)[C@@H]1C[C@]1(C(=O)N1CC34COCC3(C1)CN(S(=O)(=O)C(C)C)C4)Cn1c-2c(C2CCCCC2)c2ccc(C(=O)NS(=O)(=O)C(C)C)cc21 (some centres not stated),17

# System: Hepatitis C virus
# Experiment: Antiviral activity against HCV genotype 1a H77c infected in human HuH7 cells after 3 days by luciferase reporter gene assay
# Assay type: functional, cell-based, Hepacivirus hominis
# Conditions: Huh-7, 72 h
row,Structure (SMILES),pEC50
1,CCN1CC23COCC2(C1)CN(C(=O)[C@]12C[C@H]1c1cc(OC)ccc1-c1c(C4CCCCC4)c4ccc(C(=O)NS(=O)(=O)C(C)C)cc4n1C2)C3 (some centres not stated),8.40
2,COc1ccc2c(c1)[C@@H]1C[C@]1(C(=O)N1CC34CN(C)CC3(CN(C)C4)C1)Cn1c-2c(C2CCCCC2)c2ccc(C(=O)NS(=O)(=O)C(C)C)cc21 (some centres not stated),9.00
3,COc1ccc2c(c1)[C@@H]1C[C@]1(C(=O)N1CC34COCC3(CN(C)C4)C1)Cn1c-2c(C2CCCCC2)c2ccc(C(=O)NS(=O)(=O)C(C)C)cc21 (some centres not stated),9.00
4,COc1ccc2c(c1)[C@@H]1C[C@]1(C(=O)N1CC34COCC3(C1)CN(S(=O)(=O)C(C)C)C4)Cn1c-2c(C2CCCCC2)c2ccc(C(=O)NS(=O)(=O)C(C)C)cc21 (some centres not stated),7.80

# System: not listed separately
# Experiment: Drug uptake in rat liver at 5 mg/kg, iv after 6 hrs
# Assay type: ADME, organism-based
# Design: dose 5 mg/kg, route intravenous
# Conditions: liver, read-out: Drug uptake
row,Structure (SMILES),concentration at 6 h [nM]
1,COc1ccc2c(c1)[C@@H]1C[C@]1(C(=O)N1CC34CN(C)CC3(CN(C)C4)C1)Cn1c-2c(C2CCCCC2)c2ccc(C(=O)NS(=O)(=O)C(C)C)cc21 (some centres not stated),66
2,COc1ccc2c(c1)[C@@H]1C[C@]1(C(=O)N1CC34COCC3(CN(C)C4)C1)Cn1c-2c(C2CCCCC2)c2ccc(C(=O)NS(=O)(=O)C(C)C)cc21 (some centres not stated),52
